pIC50, pKd, pKi: −log10 of the molar value.

Usually pKd stands for −log10 of the Kd, conventionally taken in molar units. By pIC50 is commonly meant the negative decadic logarithm of the IC50, by convention in mol/L. As usually defined, the pKi is the Ki on a negative log10 scale, so that one unit is a factor of ten.

Experiment [1] has as its target T1, Beta-2 adrenergic receptor (Homo sapiens, UniProt P07550). The experiment can be described thus: Displacement of [3H]-DHA from beta-2 AR (unknown origin) overexpressed in HEK293 cell membrane assessed as dissociation constant (K) incubated for 90 mins by liquid scintillation analysis. Background: In a radioligand displacement assay an active substance lowers the binding of a labelled ligand.

Experiment [2] concerns the target T1, Beta-2 adrenergic receptor. The experiment can be described thus: Antagonist activity at beta-2 AR (unknown origin) overexpressed in HEK293 cell membrane assessed as inhibition of ISO-induced cAMP production at EC80 preincubated for 15 mins followed by agonist addition measured after 30 mins by TR-FRET assay. On the technique in general: cAMP levels reflect the balance of adenylyl cyclase and phosphodiesterase activity.

Experiment [3] concerns the target T1, Beta-2 adrenergic receptor. Nature of the experiment: Displacement of [3H]-DHA from beta-2 AR (unknown origin) overexpressed in HEK293 cell membrane assessed as inhibition constant incubated for 90 mins by liquid scintillation analysis.

T1 sequence (P07550 whole entry): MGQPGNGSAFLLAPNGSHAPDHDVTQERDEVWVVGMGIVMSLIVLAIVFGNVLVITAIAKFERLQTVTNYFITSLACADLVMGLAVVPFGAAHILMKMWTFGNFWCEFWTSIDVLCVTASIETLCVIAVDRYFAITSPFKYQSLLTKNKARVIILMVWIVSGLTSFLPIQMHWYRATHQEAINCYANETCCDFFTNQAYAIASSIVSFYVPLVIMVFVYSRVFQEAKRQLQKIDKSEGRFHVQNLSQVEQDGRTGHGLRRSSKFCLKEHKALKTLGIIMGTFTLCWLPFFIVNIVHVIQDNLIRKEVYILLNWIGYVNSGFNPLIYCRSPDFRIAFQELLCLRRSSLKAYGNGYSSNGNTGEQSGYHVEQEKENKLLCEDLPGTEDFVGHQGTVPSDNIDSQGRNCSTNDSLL

With `CC(C)NC[C@H](O)COc1ccc(CCCCN=[N+]=[N-])cc1`, the negative logarithm of the Kd (pKd) in experiment [1] is 6.23. Moreover, the pIC50 in experiment [2] is 5.32. Besides, the pKi in experiment [3] was 6.41.

On to `CC(C)NC[C@H](O)COc1ccc(CCCN=[N+]=[N-])cc1`, for which the pIC50 in experiment [2] is 5.40.
